Biological target: T1, Tryp-N (Thermochaetoides thermophila, UniProt G0SEK4)
T1 sequence (G0SEK4 68-292): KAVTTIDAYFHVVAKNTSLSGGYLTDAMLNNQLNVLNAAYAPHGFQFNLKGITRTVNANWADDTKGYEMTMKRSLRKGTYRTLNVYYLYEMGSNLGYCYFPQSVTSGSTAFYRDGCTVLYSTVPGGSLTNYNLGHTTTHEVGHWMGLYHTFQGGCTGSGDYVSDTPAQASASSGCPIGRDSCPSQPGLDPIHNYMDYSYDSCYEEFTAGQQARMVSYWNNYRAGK
Assay: protease activity assay, probably FITC-labeled casein
Type: biochemical

## N=C(N)c1ccccc1 [benzamidine]
  IC50: ~500 µM
